These results are taken from US6677433B2 (The Regents of the University of California, priority 2001, dated 2004).

For one series, the system named is castor seed 2S protein. The class given is biochemical, Ricinus communis. The conditions noted are these: 20 min at 25° C.
Another series deals with T1, Acetylcholine Receptor (Mus musculus, UniProt P02716+P04756+P04760).
T1 construct: Mouse cells, line C2, were grown as described by Gu et al; endogenous in cells; host or cells: mouse cell line C2, after fusion medium (myotubes)
T1 sequence (P04760 23-519): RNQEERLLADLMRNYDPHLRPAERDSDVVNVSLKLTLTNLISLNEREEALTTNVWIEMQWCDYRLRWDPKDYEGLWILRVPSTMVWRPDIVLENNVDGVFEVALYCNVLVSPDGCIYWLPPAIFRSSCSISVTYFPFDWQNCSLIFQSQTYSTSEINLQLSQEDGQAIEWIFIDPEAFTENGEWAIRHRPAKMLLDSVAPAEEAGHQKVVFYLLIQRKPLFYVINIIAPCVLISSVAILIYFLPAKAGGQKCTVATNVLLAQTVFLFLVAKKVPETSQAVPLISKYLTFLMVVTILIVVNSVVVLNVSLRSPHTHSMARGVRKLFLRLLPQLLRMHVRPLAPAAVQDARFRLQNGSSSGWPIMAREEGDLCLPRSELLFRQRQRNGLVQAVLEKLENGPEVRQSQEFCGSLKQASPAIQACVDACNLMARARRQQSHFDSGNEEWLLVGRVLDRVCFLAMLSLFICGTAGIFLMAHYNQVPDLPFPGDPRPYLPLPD
T1 sequence (P02716 25-520): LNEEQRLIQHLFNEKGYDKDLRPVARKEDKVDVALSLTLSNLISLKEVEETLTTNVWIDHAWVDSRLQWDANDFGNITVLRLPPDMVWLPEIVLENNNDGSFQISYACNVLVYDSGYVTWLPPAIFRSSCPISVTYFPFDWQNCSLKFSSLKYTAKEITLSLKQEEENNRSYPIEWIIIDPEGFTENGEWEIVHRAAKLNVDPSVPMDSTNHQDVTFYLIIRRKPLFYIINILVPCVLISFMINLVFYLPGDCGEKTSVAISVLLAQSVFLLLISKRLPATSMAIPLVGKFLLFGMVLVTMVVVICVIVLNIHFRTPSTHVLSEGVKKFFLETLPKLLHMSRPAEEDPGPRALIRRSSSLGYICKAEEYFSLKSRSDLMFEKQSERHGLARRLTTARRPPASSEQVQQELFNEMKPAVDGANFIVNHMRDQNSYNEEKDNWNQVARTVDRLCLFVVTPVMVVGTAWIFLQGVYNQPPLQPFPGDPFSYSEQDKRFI
T1 sequence (P09690 24-501, further chain): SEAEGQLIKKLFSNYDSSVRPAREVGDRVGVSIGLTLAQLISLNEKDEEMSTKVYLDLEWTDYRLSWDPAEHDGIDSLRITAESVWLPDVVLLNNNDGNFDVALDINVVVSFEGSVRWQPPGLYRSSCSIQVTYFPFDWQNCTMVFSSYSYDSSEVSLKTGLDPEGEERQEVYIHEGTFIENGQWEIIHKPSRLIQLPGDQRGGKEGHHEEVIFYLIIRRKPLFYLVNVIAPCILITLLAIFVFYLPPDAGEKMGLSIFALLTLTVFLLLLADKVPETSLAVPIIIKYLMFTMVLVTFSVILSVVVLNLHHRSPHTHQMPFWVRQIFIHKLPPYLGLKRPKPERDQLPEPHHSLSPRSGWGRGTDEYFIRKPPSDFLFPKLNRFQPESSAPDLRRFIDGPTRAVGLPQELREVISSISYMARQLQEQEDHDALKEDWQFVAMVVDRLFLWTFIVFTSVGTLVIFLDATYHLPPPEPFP
T1 sequence (P04756 21-457): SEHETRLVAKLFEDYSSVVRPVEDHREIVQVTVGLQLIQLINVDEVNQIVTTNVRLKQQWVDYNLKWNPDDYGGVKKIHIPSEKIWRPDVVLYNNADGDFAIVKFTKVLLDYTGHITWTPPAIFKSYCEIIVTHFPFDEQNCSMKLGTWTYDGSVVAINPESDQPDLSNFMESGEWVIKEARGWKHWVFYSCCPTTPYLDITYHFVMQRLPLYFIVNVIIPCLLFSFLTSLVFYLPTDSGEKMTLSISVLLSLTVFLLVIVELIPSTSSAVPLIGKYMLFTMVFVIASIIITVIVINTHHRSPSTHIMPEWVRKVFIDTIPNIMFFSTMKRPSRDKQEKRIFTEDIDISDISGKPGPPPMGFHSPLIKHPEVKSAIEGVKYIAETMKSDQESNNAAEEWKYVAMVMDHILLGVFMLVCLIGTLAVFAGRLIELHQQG
It counts as binding. The conditions noted are these: cells treated with reductant, washed, then toxin; no reductant = 100.

A short description of series [1]: Reoxidation of reduced BLG in air. The class given is physicochemical. The conditions noted are these: reduced by either NTS or DTT. The protocol: Two sulfhydryl (SH) groups can often spontaneously react to form an S—S bond in the presence of oxygen. […] For example, the reduced form of β-lactoglobulin (BLG), a major allergen of cow's milk, is fully reoxidized after 3 days in air whether reduced by either NTS or DTT. This invention provides for the stabilization of proteins, including allergenic proteins reduced by the NTS at 4° C. and by DTT at 55° C. Other physiological reductants such as lipoic acid may also be used to initially reduce the proteins. In general, the reduction reactions were conducted as described in previous examples. The proteins are stabilized in that the SH groups of these proteins and allergens are blocked and prevented from reoxidizing to form S—S bonds. This stabilization is maintained for at least three months, preferably at least six months and more preferably for longer than one year. Reduced BLG was stabilized by reaction with the physiological disulfides, cystamine and oxidized glutathione (GSSG) and also by heat. Other physiological disulfides such as homoglutathione and some microbial disulfides would also be suitable. Besides BLG, examples are provided for milk, peanut and pollen extracts. However, other reduced proteins such as those of egg, soy, rice, wheat and barley may also be stabilized by reaction with the same physiological disulfides and by treatment with heat. […]

The next series deals with trypsin. Nature of the series: Trypsin proteolysis of purified milk allergen proteins. The class given is biochemical. The conditions noted are these: 2 μg trypsin. How it is done:
The analysis of the reduction was done using the mBBr/SDS-PAGE techniques. Further in this study, when 10 μg of an NTS reduced purified milk allergen protein, β-lactoglobulin (Sigma Chemical Co.), was treated with 2 μg of trypsin, proteolysis was 100% as compared with only 50% for the identically trypsin treated oxidized β-lactoglobulin. […] However, 10 μg of purified […] reduced by the NTS was proteolyzed 80% by trypsin. Also 10 μg of α-lactalbumin reduced by 0.8 μg of thioredoxin and 0.5 mM DTT was 100% proteolyzed by 2 μg of trypsin.

The next series concerns the target NADP/thioredoxin system (Escherichia coli, UniProt P0AA25). The protocol: Reactions were carried out in physiological buffered saline solution (PBS; i.e., 10 mM Na2HPO4, 1.8 mM KH2PO4, 2.7 mM KCl and 137 mM NaCl, pH 7.4) containing either 10 μg of pure target protein or 50 μg of raw milk. The reaction mixtures were incubated at 4° C. overnight or at 37° C. and 55° C. for 45 min. For complete reduction, samples were incubated in PBS containing 5 μl of 100 mM DTT and boiled 5 min. The reduced proteins were visualized on gels by mBBr labeling and gel electrophoresis as described below. The extent of reduction was determined by scanning the gels.
Sulfhydryl groups were visualized as their fluorescent mBBr derivatives. mBBr, 10 μl of a 100 mM solution, was added to each protein sample. After 20 min of incubation, the reaction was stopped by adding 10 μl of 100 mM 2-mercaptoethanol, 10 μl of 20% SDS and 20 μl of SDS/PAGE sample buffer containing 80% (v/v) glycerol and 0.005% bromophenol blue. Proteins were then separated by SDS/PAGE (10-20% acrylamide gradient) as described below. After electrophoresis, gels were placed in 12% trichloroacetic acid for 1 hr for fixation and then soaked overnight or longer in 40% (v/v) methanol and 10% (v/v) acetic acid with several changes to remove excess mBBr. The destained gels were then placed under 365 nm UV light to visualize fluorescent bands. […]

Series [2] relates to pepsin. Briefly: Pepsin assay in simulated gastric fluid. The class given is in vitro ADME, porcine. The conditions noted are these: oxidized BLG in milk, SGF 37° C. How it is done:
BLG, 640 μg, or milk, 1 mg protein (i.e., about 30 μl), was incubated with or without the thioredoxin system (NTS) at either 4° C. […] The BLG, 320 μg, or milk, 500 μg protein, was then treated in 200 μl of simulated gastric fluid (SGF) as described by Astwood, J. D. et al. (1996), “Stability of food allergens to digestion in vitro”, Nature Biotechnol. 14:1269-1273. SGF consists of 0.32% pepsin (w/v) and 30 mM NaCl adjusted at pH 1.2 with HCl (Board of Trustees (ed.) 1995, Simulated Gastric Fluid, TS., pp. 2053 in the United States Pharmacopeia 23, The National Formulary 18. United States Pharmacopeial Convention, Inc. Rockville, Md.). The reaction mixture was incubated at 37° C. and stopped by adding 0.375-fold volume of 160 mM Na2CO3 (ca. pH 7) after 0, 0.25, 1, 2, 4, 8, 15, 30 and 60 min incubation. The protein mixture was then subjected to SDS-PAGE (15% gels) and stained for protein with Coomassie blue as described below. As indicated, the allergenicity of the digested samples was determined by skin test analysis.

Another series has as its system atopic dogs. Nature of the series: Skin tests in atopic dogs (wheal area). The conditions noted are these: dog, in vivo. The protocol:
Newborn pups from two litters of the atopic dog colony, designated CGB and GCB, were injected subcutaneously at day 1 with 1 μg each of wheat, cows milk and beef extract (Miles, Inc., Elkhart, Ind., described in Example 33) in 0.2 ml of alum. A third litter, designated CBB, was injected with a soy extract (Miles, Inc. described in Example 33) in addition to these same allergens. Procedures for the sensitization, testing and maintenance of the pups were substantially the same as those described in Example 36.
About 3 min prior to skin testing, each dog received 4-5 ml of filtered 0.5% Evans blue dye solution (equivalent to 0.2 ml of 0.5% Evans blue dye per kg of weight) through a cephalic vein to enhance assessment of the cutaneous IgE antibodies. Serial dilutions of 100 μl of each sample were injected intradermally on the abdominal skin to establish the titer. After 15-20 min, the allergic response was determined by measuring the size of the blue wheal reaction (maximum length and width). An appropriate negative control (buffer diluted in physiological saline) was included for each animal tested. Repeated tests with thioredoxin, NTR, NADPH and pepsin alone were consistently negative.

Series [3] relates to pepsin. Nature of the series: Assay for stability to pepsin (simulated gastric fluid). The class given is in vitro ADME, porcine. The conditions noted are these: 37° C. The protocol: BLG (1 mg/ml) or milk (15 mg/ml) were mixed with simulated gastric fluid (SGF) to give 0.32% pepsin and incubated for the indicated times at 37° C. as described in Example 39 and Astwood et al., 1996, herein incorporated by reference. The digested proteins were analyzed by reducing SDS-PACE (10 to 20% gradient gel) also as described in Laemmli, 1970, herein incorporated by reference.

With `O[C@H](CS)[C@H](O)CS` (racemic) [DTT, dithiothreitol], the “Relative Reduction (%)” value in the series with castor seed 2S protein is 67%. For the same molecule, on Acetylcholine Receptor, the “% Binding, Treatment C” value is 85.0%.

Consider “reduced form of BLG: BLG reduced by either NTS or DTT”, for which the “time to full reoxidation in air” value in series [1] is 3 days.

With “β-lactoglobulin: bovine β-lactoglobulin, major milk allergen; Control = untreated BLG in Tables XVIII, XXI-XXIV”, the proteolysis by trypsin is recorded as 50% in the series with trypsin (10 μg oxidized protein) and 100% in the series with trypsin (10 μg protein reduced by the NTS). Further, in the series with NADP/thioredoxin system, the “time BLG remained reduced” value worked out at 2 days. The time resisting digestion result with pepsin [2] is “at least 60 min”. In the series with atopic dogs, the “share of the total wheal-inducing activity of milk” value was determined as 80%. Moreover, the “half-life in SGF” value with pepsin [3] is reported as “about 2 hours”.
